Assay [1] deals with rats. The following applies: rat, in vivo.
The subject of assay [2] is rats. To be noted: rat; pretreatment quetiapine 10 mg/kg i.p.; heroin 0.032 mg/kg/infusion i.v., five lever presses per infusion; FIG. 2.

Each structure is given as a SMILES string.

Turning to `COc1ccc2c3c1O[C@H]1C(=O)CC[C@@]4(O)[C@@H](C2)N(C)CC[C@]314` [oxycodone], in the assay with rats [1], the “average tail flick latency” value is reported as “about 7.3 seconds” and the “median tail flick latency” value was ~5.8 s.

With `OCCOCCN1CCN(C2=Nc3ccccc3Sc3ccccc32)CC1` [quetiapine], the “self-administration (reinforcing effect) of heroin” value in the assay with rats [2] is “decreased”.

For the origin of these results see patent US20190117637A1 (priority 2016, published 2019).
